Measurements reported in US6403618B1, “Agent and method for controlling angiogenesis” (Novactyl, Inc., priority 2000, dated 2002).

Tests used:
psoriasis = assay: Treatment of proliferative skin disorders; format: in vivo, human; settings: topical, preliminary information
Description: Several patients suffering from proliferative skin disorders such as psoriasis have been included in a recent ongoing study of the anti-proliferative effects of topical picolinic acid. […] The patients may be treated with a topical application of approximately 5% to 20% picolinic acid, or a derivative thereof, in an absorption base. Alternatively, the patient may be treated with a solution containing approximately 5% to 20% picolinic acid, or derivative, in deionized water. The topical preparation may be applied twice a day or in an alternative pharmacologically acceptable regimen.

recurrent plantar wart = assay: Treatment of virus-induced plantar ulcer; format: in vivo, human
Experimental: A patient with recurrent plantar wart of about 2 cm in diameter was treated with topical picolinic acid. The patient, a pathologist who had difficulty walking because of the pain caused by the ulcer, had experimented with numerous medications for more than three months without any significant results prior to treatment with the picolinic acid. It is relevant to note that many plantar ulcers are transformed into malignant tumors.
The patient was treated with a solution of 10% picolinic acid in deionized water for one week. […] They then were treated with 10% picolinic acid in Aquaphor. The ointment was placed on the ulcer and on a patch. The patch was replaced every 24 hours.

[1] = system: papilloma virus ulcerative lesion; assay: Treatment of ulcerative lesion with topical picolinic acid; format: in vivo, horse
Experimental: The lesion was progressive, with total loss of hair over the area. The diagnosis was viral disease, i.e. papilloma virus, complicated by fungal infection. The horse was treated with conventional local antibiotic and chemical therapies for about four months.
An aqueous solution of 10% picolinic acid in deionized water was applied every other day with a cotton swab over and around the lesion. The treatment continued for 45 days. The course of the regression of the viral lesion was as follows: […]

LD-50 = settings: in vivo
normal cells = settings: cited from earlier work
[2] = system: metastatic breast cancer lesions; assay: Treatment of metastatic disease to the skull from breast cancer; format: in vivo, human; settings: topical 10% picolinic acid in Aquaphor, changed twice daily
Experimental: A person with metastatic breast cancer to the skin and bone of the skull was treated with a topical preparation of 10% picolinic acid in Aquaphor. The preparation was applied to the cancerous lesions and to a bandage and changed twice daily. The multiple cancer lesions were approximately 1 to 1.5 cm in diameter.

transformed cells = settings: cited from earlier work
metastatic cancer = assay: Systemic administration in metastatic cancer; format: in vivo; settings: 00 gelatin capsules at 500 mg per capsule
Description: A systemic preparation of a picolinic acid, its derivatives or analogs containing approximately 1% to 100% active ingredient may be administered orally, intravenously or by any acceptable route for the treatment of cancer and systemic infections. […] The preparation can be provided as a flavored oral solution. Likewise, an injectable form may be prepared.

human papilloma viruses = assay: Treatment of patients with papilloma virus skin lesions (common warts); format: in vivo
Experimental: Five patients ranging in age from 11 years to 52 years and each having at least one common wart induced by human papilloma viruses was treated with a topical preparation of picolinic acid. The topical preparation was either solution of 10% to 20% picolinic acid in deionized water or a topical ointment wherein 10% picolinic acid is incorporated into Aquaphor, i.e.1 g of picolinic acid in 10 g of Aquaphor.

KB cells = assay: Effects of picolinic acid on growth (total cell protein); format: cell-based, human; settings: 3 mM
Experimental: (§1) Cells were plated at 1.5×10^5 cells/60-mm dish; 48 hours later, the medium was removed, and new media with or without 3 mM picolinic acid was added. Total cell protein was determined at the indicated times; each point is the average of triplicate measurements from 2 cultures.

[3] = Stability experiments as preservative in foods and on fresh fruits; format: physicochemical; settings: in foods and on the surface of fresh fruits
Description: (§2) The chelating agents of the present invention can be used as preservatives in perishable items such as foods and pharmaceuticals and to prevent fungal growth on the surface of fresh fruits. Presently chemicals such as citrashine orthophenilphenol thiabendazole are used. […] Microbial and fungal growth is inhibited while the food components are unaffected. The preservative of the present invention has less likelihood of toxicity or untoward reactions if ingested that the present, complex chemical antifungals. The preferred concentration of picolinic acid or acceptable derivative for this use is approximately 1% to approximately 99%.

recombinant MPS-1 = recombinant MPS-1 (Homo sapiens, UniProt P42677); assay: Zinc dependent binding of MPS-1 to DNA, gel shift assays and 65Zn; format: biochemical
Description: MPS-1 is a ubiquitous tumor marker and cell growth stimulator and is described in detail in the inventor's U.S. Pat. No. Re.35,585 (No. 5,243,041). MPS-1 has one zinc finger domain of the type CCCC. […] This is detected by a change in the electrophoretic mobility of MPS-1 under non-denaturing conditions. These experiments indicate that picolinic acid and derivatives should remove zinc and denature various types of zinc finger or zinc ring proteins, whether known or heretofore undiscovered, including viral proteins such as nucleocapsid p7 proteins, as will be explained further. Furthermore, the inventor has determined that any chemical compound, whether known or heretofore undiscovered, that will remove the zinc (or other metal) and denature the proteins or that will form a ternary complex (protein-zinc-chelator) can be effective as a therapeutic agent or as an autologous immune response modulator, as will be discussed in greater detail below.

iron in the cells = settings: cited from earlier work
[4] = system: Microbial and fungal growth; assay: Preservative use in foods and on fresh fruits
Description: as §2

LoVo cells = assay: Effects of picolinic acid on growth (total cell protein); format: cell-based
Experimental: as §1

WI-38 cells = assay: as above; format: cell-based
Experimental: as §1

Description for actinic lesions: Two patients with actinic lesions (average of 5 lesions per patient, each lesion being approximately 3 mm to 5 mm in diameter) were diagnosed as requiring liquid nitrogen removal of the lesions. The patients received a daily application of 10% picolinic acid in Aquaphor.

O=C(O)c1ccccn1 [picolinic acid, 2-Pyridine carboxylic acid]
regression of psoriasis (psoriasis): significant effect in inducing regression
ulcer appearance (recurrent plantar wart; 10% solution in deionized water for one week): Central necrosis was noted
ulcer outcome (recurrent plantar wart; then 10% in Aquaphor with patch, after an additional three weeks): resolved
lesion appearance ([1]; 10% aqueous solution topical every other day, after 10 days): central necrosis
diameter of the lesion ([1]; 10% aqueous solution topical, after 20 days, 3 inch at start): approximately 2 inches
diameter of the lesion ([1]; 10% aqueous solution topical, after 30 days): about 1 inch
lesion outcome ([1]; 10% aqueous solution topical, at 45 days): resolved with some scar tissue
recurrence ([1]; after three additional months): without evidence of recurring disease
LD-50 (LD-50): 140 grams/70 Kg
toxic effects (normal cells; longer exposure, most normal cells): no toxic effects
cell cycle arrest (normal cells; short-term treatment): arrests normal cells in G1, (Go)
time until lesions resolved with scar tissue [2]: approximately 35 days
cytotoxicity (transformed cells): cytotoxicity and cell death was observed
cell cycle arrest (transformed cells; short-term treatment): blocked in different phases of the cell cycle
control of metastatic cancer (metastatic cancer): effective
resolution with ointment versus solution (human papilloma viruses; 10% picolinic acid in Aquaphor): faster resolution
wart appearance (human papilloma viruses; topical 10-20% solution or 10% Aquaphor ointment, after seven days): central necrosis of the wart occurred
course of disease, 10% versus 20% solutions (human papilloma viruses; topical solution in deionized water): no significant difference
cytotoxic effects relative to LoVo cells (KB cells): not as pronounced as in the case of LoVo cells
growth and cytotoxicity compared with LoVo results (KB cells): Equivalent results were obtained
stability as preservative [3]: highly stable
removal of radioactive 65Zn from MPS-1 (recombinant MPS-1; CCCC zinc finger, electrophoretic mobility, non-denaturing conditions): remove radioactive ^65Zn from MPS-1
zinc dependent binding of recombinant MPS-1 to DNA (recombinant MPS-1; gel shift assays): inhibit
incorporation of iron into the cells (iron in the cells): inhibits
removal of radioiron from the cells (iron in the cells): effectively removes
Microbial and fungal growth [4]: inhibited
growth of LoVo cells (LoVo cells; 3 mM picolinic acid, FIG. 2): inhibited
cytotoxicity (LoVo cells; 3 mM, longer exposure 48-72 hours): cytotoxicity and cell death was observed
growth of normal WI-38 cells (WI-38 cells; 3 mM picolinic acid, within 24 hours): inhibited
toxic effects (WI-38 cells; 3 mM, up to 72 hours of treatment): no toxic effects
lesion outcome (actinic lesions; daily 10% picolinic acid in Aquaphor, approximately three weeks, two patients): completely cured
effects on normal skin (actinic lesions; in vivo): without any effects on normal skin
